Earlier results, collected in article PMC1403760 (BMC Pharmacology, 2006).

System: HEK cells
Design: method as in PMID 12238779
Conditions: in these (HEK) cells; read-out: EC50 of forskolin

With `C=C[C@@]1(C)CC(=O)[C@]2(O)[C@@]3(C)[C@@H](O)CCC(C)(C)[C@@H]3[C@H](O)[C@H](OC(C)=O)[C@@]2(C)O1` [forskolin] as the molecule, how does the EC50 read?
The EC50 was 10 µM.
